The values below come from ChEMBL document CHEMBL1201862, “PubChem BioAssay data set” (2004).

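Assay format: 96-well plates, 48-hour exposure. At the GI50, growth is halved.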 The source made the active and inactive calls. No stated cut-off is given here; in the data, active = GI50 up to about 1.1 µM and inactive = higher. A value given as a limit tells only on which side of the number the result lay.

Test systems include SR; Malme-3M; DU-145; OVCAR-5; EKVX; MCF7; A549; SW-620; MDA-MB-231; MDA-MB-435; MDA-N; UACC-257; SNB-19; K562; HOP-62; HCT-15; HL-60; ACHN; COLO 205; SN12C.
Holding throughout (test): growth of human tumour cells (NCI), 48 h

For the molecule `CN(Cc1cnc2nc(N)nc(N)c2n1)c1ccc(C(=O)NC(CCC(=O)NC(P(=O)(O)O)P(=O)(O)O)C(=O)O)cc1` (stereo not given), the GI50 in the assay on SR is 9.06 µM (inactive); with Malme-3M, > 100 µM (inactive); with DU-145, 45.3 µM (inactive); in the assay with OVCAR-5 it was 45.8 µM (inactive); in the assay on EKVX, > 100 µM (inactive); with MCF7 it was 39.8 µM (inactive). The GI50 with A549 was 15.3 µM (inactive); in the assay on SW-620, 6.84 µM (inactive); in the assay on MDA-MB-231 it was > 100 µM (inactive); in the assay with MDA-MB-435 it was 30 µM (inactive); with MDA-N, 16.2 µM (inactive); in the assay with UACC-257, 99.1 µM (inactive). Besides, the GI50 in the assay on SNB-19 was 9.18 µM (inactive); in the assay with K562, 4.21 µM (inactive); with HOP-62 it was 59.8 µM (inactive); in the assay on HCT-15, 22.9 µM; with HL-60, 7.18 µM (inactive); in the assay with ACHN, 49.7 µM (inactive). The values for the GI50 in the assay with COLO 205 and in the assay with SN12C were > 100 µM (inactive) and 55.2 µM (inactive), respectively.
Consider `COC(=O)c1ccc(NCC2=CC(=O)c3ccccc3C2=O)cc1`, for which the GI50 is 14.6 µM (inactive) with SR; 5.81 µM (inactive) in the assay with Malme-3M; 16.5 µM (inactive) in the assay with DU-145; 21.6 µM (inactive) in the assay with OVCAR-5; 21.1 µM (inactive) with EKVX; 18.4 µM (inactive) with MCF7. The GI50 in the assay on A549 is 22.5 µM (inactive); in the assay with SW-620, 22.2 µM (inactive); in the assay with MDA-MB-231, 2.99 µM (inactive); in the assay with MDA-MB-435 it was 12.2 µM (inactive); with MDA-N, 9.23 µM (inactive); with UACC-257 it was 14.3 µM (inactive). Besides, the GI50 in the assay on SNB-19 was 31.4 µM (inactive); in the assay with K562 it was 3.44 µM (inactive); in the assay with HOP-62, 16.2 µM (inactive); in the assay with HCT-15, 14.5 µM; with HL-60, 3.1 µM (inactive); in the assay with ACHN, 13.9 µM (inactive). The GI50 was 13.3 µM (inactive) with COLO 205 and 21.8 µM (inactive) in the assay on SN12C.
Turning to `COC(=O)[C@H]1[C@@H](O)[C@@]2(O)c3c(OC)cc(OC)cc3O[C@@]2(c2ccc3c(c2)OCO3)[C@@H]1c1ccccc1`, the GI50 with SR is < 0.005 µM (active); in the assay on Malme-3M, 0.0168 µM (active); in the assay on DU-145, 0.00873 µM (active); in the assay on OVCAR-5, 0.00953 µM (active); with EKVX, 0.017 µM (active); with MCF7, < 0.005 µM (active). In addition, the GI50 in the assay on A549 is < 0.005 µM (active); with SW-620, < 0.005 µM (active); in the assay on MDA-MB-231, 0.0136 µM (active); in the assay on MDA-MB-435, 0.00603 µM (active); with MDA-N it was 0.00513 µM (active); with UACC-257 it was 0.00826 µM (active). Further, the GI50 in the assay on SNB-19 was < 0.005 µM (active); in the assay on K562, < 0.005 µM (active); with HOP-62, 0.00879 µM (active); in the assay on HCT-15, less than 0.005 µM; with HL-60, 0.00629 µM (active); with ACHN, < 0.005 µM (active). Also, the values for the GI50 with COLO 205 and in the assay with SN12C were 0.00736 µM (active) and 0.0076 µM (active), respectively.
Regarding `CC1(C)COC(c2ccccc2-c2ccccc2)=N1`, the GI50 was > 100 µM (inactive) in the assay with SR; > 100 µM (inactive) with Malme-3M; > 100 µM (inactive) in the assay with DU-145; > 100 µM (inactive) with OVCAR-5; 72.1 µM (inactive) in the assay on EKVX; > 100 µM (inactive) with MCF7. The GI50 was 59.2 µM (inactive) in the assay with A549; > 100 µM (inactive) in the assay on SW-620; 56.6 µM (inactive) with MDA-MB-231; > 100 µM (inactive) in the assay with MDA-MB-435; > 100 µM (inactive) in the assay with MDA-N; 66.1 µM (inactive) in the assay with UACC-257. Also, the GI50 was 71.6 µM (inactive) with SNB-19; 90.2 µM (inactive) with K562; > 100 µM (inactive) in the assay on HOP-62; more than 100 µM in the assay on HCT-15; > 100 µM (inactive) with HL-60; > 100 µM (inactive) with ACHN. The GI50 in the assay on COLO 205 and with SN12C was > 100 µM (inactive) each time.
Consider `O=C1NC(O)c2ccccc2O1` (stereo not given), for which the GI50 in the assay with SR, with Malme-3M, in the assay on DU-145, in the assay on OVCAR-5, in the assay with EKVX and with MCF7 was > 100 µM (inactive) each time. Also, the GI50 in the assay on A549, in the assay with SW-620, in the assay on MDA-MB-231, in the assay with MDA-MB-435, in the assay with MDA-N and in the assay on UACC-257 was > 100 µM (inactive) throughout. Besides, the GI50 in the assay on SNB-19 was > 100 µM (inactive); in the assay with K562, > 100 µM (inactive); in the assay with HOP-62, > 100 µM (inactive); in the assay on HCT-15, more than 100 µM; in the assay on HL-60 it was > 100 µM (inactive); with ACHN, > 100 µM (inactive). Further, the GI50 in the assay on COLO 205 and with SN12C was > 100 µM (inactive) each time.
Regarding `NS(=O)(=O)c1ccc(NC(=O)N/N=C/c2ccccc2[N+](=O)[O-])cc1`, the GI50 is 17.9 µM (inactive) in the assay on SR; 78.2 µM (inactive) in the assay on Malme-3M; 72.3 µM (inactive) in the assay on DU-145; > 100 µM (inactive) with OVCAR-5; 61 µM (inactive) in the assay on EKVX; 29.7 µM (inactive) with MCF7. Moreover, the GI50 with A549 was > 100 µM (inactive); with SW-620, 36.1 µM (inactive); in the assay on MDA-MB-231, 44.8 µM (inactive); with MDA-MB-435, 19 µM (inactive); in the assay with MDA-N, 19.4 µM (inactive); in the assay with UACC-257, 79.4 µM (inactive). Also, the GI50 with SNB-19 was 44 µM (inactive); in the assay with K562 it was 28.8 µM (inactive); in the assay with HOP-62, 40.8 µM (inactive); with HCT-15 it was 35 µM; in the assay on HL-60 it was 46.1 µM (inactive); in the assay with ACHN it was 66.7 µM (inactive). Besides, the results for the GI50 with COLO 205 and in the assay with SN12C were 38.4 µM (inactive) and 32.7 µM (inactive), respectively.
`COc1cc2c3cc1Oc1c(O)c(OC)cc4c1[C@H](Cc1ccc(cc1)Oc1cc(ccc1O)C[C@H]3N(C)CC2)N(C)CC4`: the GI50 was 1.63 µM (inactive) in the assay on SR; 17.3 µM (inactive) in the assay with Malme-3M; 15.1 µM (inactive) in the assay with DU-145; 23.6 µM (inactive) with OVCAR-5; 16.7 µM (inactive) with EKVX; 13.3 µM (inactive) in the assay with MCF7. The GI50 with A549 is 15.2 µM (inactive); in the assay with SW-620 it was 16.5 µM (inactive); with MDA-MB-231, 10.3 µM (inactive); in the assay with MDA-MB-435, 10.7 µM (inactive); in the assay with MDA-N, 10.7 µM (inactive); in the assay with UACC-257, 15 µM (inactive). Moreover, the GI50 with SNB-19 was 20.9 µM (inactive); in the assay with K562, 2.56 µM (inactive); in the assay with HOP-62, 16.4 µM (inactive); with HCT-15, 9.29 µM; in the assay with HL-60, 6.68 µM (inactive); with ACHN, 19.4 µM (inactive). Further, the GI50 in the assay with COLO 205 is 13.8 µM (inactive); in the assay on SN12C, 4.17 µM (inactive).
For the molecule `CCN(CC)CCC(=O)c1ccc(C)cc1`, the GI50 with SR is 28 µM (inactive); in the assay on Malme-3M, 23 µM (inactive); with DU-145, 39.6 µM (inactive); in the assay on OVCAR-5, 17.3 µM (inactive); in the assay on EKVX, 31.3 µM (inactive); with MCF7 it was 4.88 µM (inactive). For the same molecule, the GI50 is > 100 µM (inactive) with A549; 17 µM (inactive) in the assay with SW-620; 14.9 µM (inactive) in the assay with MDA-MB-231; 19 µM (inactive) in the assay with MDA-MB-435; 20.7 µM (inactive) in the assay with MDA-N; 17.2 µM (inactive) in the assay with UACC-257. The GI50 in the assay with SNB-19 was > 100 µM (inactive); with K562, 14.9 µM (inactive); with HOP-62, > 100 µM (inactive); in the assay on HCT-15, 18.7 µM; in the assay on HL-60 it was 24.5 µM (inactive); with ACHN, 20.6 µM (inactive). Moreover, the GI50 with COLO 205 was 16.9 µM (inactive); with SN12C, 36.9 µM (inactive).
`COc1ccc2c(c1)/c(=C/C#N)c1c3ccccc3[n+](C)n21`: the GI50 is 6.34 µM (inactive) in the assay with SR; 5.21 µM (inactive) with Malme-3M; 1.71 µM (inactive) in the assay with DU-145; 8.63 µM (inactive) in the assay on OVCAR-5; 2.69 µM (inactive) in the assay with EKVX; 6.1 µM (inactive) with MCF7. Moreover, the GI50 is 3.39 µM (inactive) in the assay on A549; 4.13 µM (inactive) in the assay on SW-620; 24 µM (inactive) with MDA-MB-231; 6.87 µM (inactive) in the assay on MDA-MB-435; 5.43 µM (inactive) in the assay on MDA-N; 6.14 µM (inactive) in the assay on UACC-257. Moreover, the GI50 in the assay with SNB-19 was 7.16 µM (inactive); with K562, 8.69 µM (inactive); with HOP-62, 5.73 µM (inactive); in the assay with HCT-15, 20.1 µM; in the assay on HL-60, 3.05 µM (inactive); in the assay with ACHN, 9.38 µM (inactive). In addition, the GI50 was 2.34 µM (inactive) with COLO 205 and 7 µM (inactive) in the assay with SN12C.
Consider `O=C(O)CC1OCC=C2C[N+]3([O-])CCC45c6ccccc6NC4C1C2CC53` (stereo not given), for which the GI50 in the assay on SR, with Malme-3M, with DU-145, in the assay on OVCAR-5, in the assay on EKVX and in the assay on MCF7 was > 100 µM (inactive) in each case. The GI50 in the assay on A549, in the assay with SW-620, with MDA-MB-231, with MDA-MB-435, with MDA-N and in the assay on UACC-257 was > 100 µM (inactive) throughout. Besides, the GI50 with SNB-19 is > 100 µM (inactive); with K562, > 100 µM (inactive); with HOP-62 it was > 100 µM (inactive); with HCT-15 it was more than 100 µM; with HL-60 it was > 100 µM (inactive); in the assay on ACHN it was > 100 µM (inactive). Besides, the GI50 with COLO 205 and with SN12C was > 100 µM (inactive) throughout.
